Measured values as given in patent US12139487B2, “Compounds and uses thereof” (Foghorn Therapeutics Inc., priority 2022, dated 2024).

Test system: BRM-dependent transcription (BRG1 mutant lung cancer cell line A549)
Assay: BRM-dependent transcription, MMTV luciferase reporter in BRG1 mutant A549 cells
Type: cell-based
Settings: Table 11; for IC50: A549-MMTV luciferase reporter, dexamethasone induced, 6 hours; for Ratio (MDA-MMTV IC50 (μM) divided by A549-MMTV IC50 (μM)): MMTV luciferase reporter cell lines, selectivity BRG1/BRM
Method: The potential inhibitory effects of compounds on BRG1 and BRM dependent transcription was study by testing the activity of against the BRG1 mutant lung cancer cell line A549 and a MDA cell line with BRM removed by CRISPR. Both cell lines were genetically engineered with a BRG1 or BRM-dependent mouse mammary tumor virus luciferase reporter. Luciferase transcription was induced by dexamethasone in the presence of compound at different concentrations and luminescence was measured using a plate reader 6 hours after stimulation.

Structure (SMILES) | IC50 (Homo sapiens, A549, 6 h) | Ratio (MDA-MMTV IC50 (μM) divided by A549-MMTV IC50 (μM)) | IC50
O=C(NCc1cc2nc(-c3ccc(OC(F)F)c([C@@H]4CC4(F)F)n3)ccc2cn1)c1cc(C(F)F)c2c(c1)S(=O)(=O)[C@@H](F)COC2 [Compound 451] | 5.6 nM | 25.86 | 
O=C(NCc1cc2nc(-c3cccc(OC(F)F)c3F)ccc2cn1)c1cc(Cl)c2c(c1)S(=O)(=O)[C@@H](F)COC2 [Compound 444] | 22.6 nM | 24.79 | 
Cc1cc(C(=O)NCc2cc3nc(-c4ccc(C(F)F)c(C5CC5)n4)ccc3cn2)cc2c1COC[C@H](F)S2(=O)=O [Compound 397] | 5.3 nM | 29.48 | 
O=C(NCc1cc2nc(N3CCOc4ccc(C(F)F)nc43)ccc2cn1)c1cc(Br)c2c(c1)S(=O)(=O)[C@@H](F)CCO2 [Compound 435] | 23 nM | 25.82 | 
CCOc1nc([C@H](C)F)ccc1-c1ccc2cnc(CNC(=O)c3cc(F)c4c(c3)S(=O)(=O)[C@@H](F)COC4)cc2n1 [Compound 395] | 4.7 nM | 21.65 | 
[2H]C1([2H])Oc2c(Cl)cc(C(=O)NCc3cc4nc(-c5ccc(OC(F)F)c(C6CC6)n5)ccc4cn3)cc2S(=O)(=O)[C@@H](F)C1([2H])[2H] [Compound 419] | 17.4 nM | 28.69 | 
O=C(NCc1cc2nc(-c3cccc(OC(F)F)n3)ccc2cn1)c1cc(C(F)F)c2c(c1)S(=O)(=O)[C@@H](F)COC2 [Compound 404] | 15.6 nM | 36.02 | 
CN(C)c1nccc(-c2ccc3cnc(CNC(=O)c4cc(F)c5c(c4)S(=O)(=O)[C@@H](F)CCO5)cc3n2)n1 [Compound 349] | 13 nM | 34.91 | 
O=C(NCc1cc2nc(N3CCCc4cc(OC(F)(F)F)cnc43)ccc2cn1)c1cc(F)c2c(c1)S(=O)(=O)[C@@H](F)CCO2 [Compound 352] | 16.3 nM | 23.28 | 
[2H]C([2H])([2H])C([2H])([2H])Oc1nc(C(F)F)ccc1-c1ccc2cnc(CNC(=O)c3cc(C(F)F)c4c(c3)S(=O)(=O)[C@@H](F)COC4)cc2n1 [Compound 446] | 13.5 nM | 29.71 | 
O=C(NCc1cc2nc(-c3cccc(C(F)(F)F)n3)ccc2cn1)c1cc(F)c2c(c1)S(=O)(=O)[C@@H](F)CCO2 [Compound 335] | 16.3 nM | 30.32 | 
O=C(NCc1cc2nc(-c3ccc(C(F)F)c(C4CC4)n3)ccc2cn1)c1cc(Br)c2c(c1)S(=O)(=O)[C@@H](F)COC2 [Compound 442] | 8.5 nM | 25.83 | 
CCOc1ccc(-c2ccc3cnc(CNC(=O)c4cc(C(F)F)c5c(c4)S(=O)(=O)[C@@H](F)COC5)cc3n2)nc1C1CC1(F)F (stereo partly shown) [Compound 416] | 19.9 nM | 50.12 | 
CC(C)c1ccc(-c2ccc3cnc(CNC(=O)c4cc(Br)c5c(c4)S(=O)(=O)[C@@H](F)CCO5)cc3n2)c(OC(F)F)n1 [Compound 402] | 21.7 nM | 26.98 | 
CCOc1ccc(-c2ccc3cnc(CNC(=O)c4cc(Cl)c5c(c4)S(=O)(=O)[C@@H](F)CCO5)cc3n2)nc1C1CC1(F)F (stereo partly shown) [Compound 370] | 20.5 nM | 27.27 | 
C#Cc1cc(C(=O)NCc2cc3nc(-c4cccc(N5C[C@@H](C)O[C@@H](C)C5)n4)ccc3cn2)cc2c1COC[C@H](F)S2(=O)=O [Compound 393] | 20.3 nM | 36.31 | 
Cc1ccc(-c2ccc3cnc(CNC(=O)c4cc(Cl)c5c(c4)S(=O)(=O)[C@@H](F)CCO5)cc3n2)c(OC(F)F)n1 [Compound 347] | 17.2 nM | 25.03 | 
O=C(NCc1cc2nc(-c3ccnc(N4CCCC4)n3)ccc2cn1)c1cc(Cl)c2c(c1)S(=O)(=O)[C@@H](F)CCO2 [Compound 345] | 15.6 nM | 21.59 | 
O=C(NCc1cc2nc(-c3cccc(C4CC4)n3)ccc2cn1)c1cc(Cl)c2c(c1)S(=O)(=O)[C@@H](F)CCO2 [Compound 337] | 20.1 nM | 30.81 | 
COc1nc([C@@H](F)CF)ccc1-c1ccc2cnc(CNC(=O)c3cc(Br)c4c(c3)S(=O)(=O)[C@@H](F)CCO4)cc2n1 [Compound 383] | 21.8 nM | 24.64 | 
COCCc1ccc2c(n1)N(c1ccc3cnc(CNC(=O)c4cc(F)c5c(c4)S(=O)(=O)[C@@H](F)CCO5)cc3n1)CCO2 [Compound 432] | 13 nM | 25.93 | 
CCOc1cccc(-c2ccc3cnc(CNC(=O)c4cc(Cl)c5c(c4)S(=O)(=O)[C@@H](F)CCO5)cc3n2)n1 [Compound 359] | 18.8 nM | 29.73 | 

More lines, now with the values ahead:

IC50 (Homo sapiens, A549, 6 h) | Ratio (MDA-MMTV IC50 (μM) divided by A549-MMTV IC50 (μM)) | IC50 | Structure (SMILES)
 | 38.20 | 5.9 nM | C[C@@H]1CCN1c1cnc2c(-c3ccc4cnc(CNC(=O)c5cc(Cl)c6c(c5)S(=O)(=O)[C@@H](F)COC6)cc4n3)cccc2c1 [Compound 498]
10.4 nM | 45.81 |  | [2H]C([2H])([2H])Oc1ccc(-c2ccc3cnc(CNC(=O)c4cc(C(F)F)c5c(c4)S(=O)(=O)[C@@H](F)COC5)cc3n2)nc1C1CC1(F)F (stereo partly shown) [Compound 455]
6.2 nM | 35.00 |  | [2H]C([2H])([2H])C([2H])([2H])Oc1ccc(-c2ccc3cnc(CNC(=O)c4cc(F)c5c(c4)S(=O)(=O)[C@@H](F)COC5)cc3n2)nc1C1CC1(F)F (stereo partly shown) [Compound 463]
15.3 nM | 27.87 |  | [2H]C([2H])([2H])Oc1ccc(-c2ccc3cnc(CNC(=O)c4cc(C(F)F)c5c(c4)S(=O)(=O)[C@@H](F)COC5)cc3n2)nc1[C@H]1CC1(F)F [Compound 459]
25.9 nM | 56.88 |  | CCOc1nc([C@H](F)CF)ccc1-c1ccc2cnc(CNC(=O)c3cc(Br)c4c(c3)S(=O)(=O)[C@@H](F)COC4)cc2n1 [Compound 461]
5.4 nM | 28.00 |  | [2H]C([2H])([2H])OCCOc1cnc2c(c1)OCCN2c1ccc2cnc(CNC(=O)c3cc(C(F)F)c4c(c3)S(=O)(=O)[C@@H](F)COC4)cc2n1 [Compound 484]
8.1 nM | 25.94 |  | COCCOc1cnc2c(c1)C(F)(F)CCN2c1ccc2cnc(CNC(=O)c3cc(Br)c4c(c3)S(=O)(=O)[C@@H](F)CCO4)cc2n1 [Compound 462]
 | 30.86 | 13.5 nM | [2H]C([2H])([2H])Oc1ccc(-c2ccc3cnc(CNC(=O)c4cc(Cl)c5c(c4)S(=O)(=O)[C@@H](F)COC5)cc3n2)nc1C1CC1(F)F (stereo partly shown) [Compound 507]
11 nM | 39.75 |  | CCOc1nn(-c2ccc3cnc(CNC(=O)c4cc(Cl)c5c(c4)S(=O)(=O)[C@@H](F)COC5)cc3n2)cc1F [Compound 472]
17.1 nM | 22.61 |  | O=C(NCc1cc2nc(-n3cc(F)c(OC(F)F)n3)ccc2cn1)c1cc(F)c2c(c1)S(=O)(=O)[C@@H](F)COC2 [Compound 473]
